Values joined by “and” are separate entries in the source; they are usually repeats but may differ in a detail not shown here. Equal entries are not always repeated. Where two headings read alike, the source gives them in different places.
How the values were obtained:
Parkin = Parkin (Homo sapiens (Human), UniProt O60260); assay: Parkin substrates and pS65-Ub western blot in HeLa cells stably expressing untagged Parkin; assay type: cell-based; settings: 5 μM, 2 h, then 3.5 μM CCCP
Description: HeLa cells stably expressing untagged Parkin were left untreated or pre-treated with 5 μM of Compounds 1, 2, 3, 4, and 31 for 2 h and treated without (−) or with (+) low dose CCCP (3.5 μM CCCP). As a positive control (PC), some cells were treated with 10 μM CCCP. Lysates were loaded onto 8-16% Tris-Glycine gels, blotted onto membranes and probed with antibodies against Parkin substrates.
HeLa cells stably expressing untagged Parkin were left untreated or pre-treated with 5 μM of Compounds 1, 2, 3, 4, and 31 for 2 h and treated without (−) or with (+) low dose CCCP (3.5 μM CCCP). The positive control (PC) was treated with 10 μM CCCP for 2 h. Lysates were loaded onto 8-16% Tris-Glycine gels, blotted onto membranes and probed with antibodies against pS65-Ub.
Cells were harvested in RIPA buffer or NP-40 lysis buffer containing protease and phosphatase inhibitors (Complete and PhosStop, Roche Applied Science) with the exception of Parkin Ub charging experiments where preheated (95° C.) SDS lysis buffer (50 mM Tris pH 7.6, 150 mM NaCl, 1% SDS) was used. Concentration of cell lysates was determined with bicinchoninic acid (Pierce Biotechnology). For Parkin Ub charging experiments, aliquots of lysates were treated with […] for 1 h at 37° C. pH was neutralized with equinormal HCl.
Protein was subjected to SDS-PAGE using 4-20% or 8-16% Tris-Glycine gels (Invitrogen) and transferred onto polyvinylidene fluoride (PVDF) (Millipore). Membranes were incubated with primary antibodies overnight at 4° C. followed by HRP-conjugated secondary antibodies (1:10,000; Jackson ImmunoResearch Laboratories). Primary antibodies used: beta III tubulin (rabbit, 1:1000, CST, #5568, CST), FLAG (mouse, 1:250,000, Sigma, F3165), GAPDH (mouse, 1:100,000-500,000, Meridian Life science, H86504M), GST (1:10,000, Sigma, G7781), MFN1 (mouse, 1:5,000, Abcam, ab57602), MFN2 (mouse, 1:5,000, Abcam, ab56889), Parkin (mouse, 1:2,000, Cell Signaling, #4211), pSer65-Ub (rabbit, 1:15,000, in-house (Fiesel et al., EMBO Reports (2015) 16:1114-30; Fiesel et al., (2015) Autophagy 11:2125-2126)), TOM70 (rabbit, 1:5,000, Proteintech, 14528-1-AP), UBE2L3 (rabbit, 1:10,000, ProteinTech, 14415-1-AP), VDAC1 (mouse, 1:5,000, Abcam, ab14734), vinculin (mouse, 1:100,000, Sigma, V9131).
As readout for its activation, a catalytic site mutant that can be used to trap Ub-charged Parkin was employed. […] To further validate effects on enhanced activation, we used HeLa cells expressing untagged native Parkin. PC treatment with 10 μM CCCP induced pSer65-Ub signals and the complete degradation of some substrates (e.g., Mitofusins) while the most abundant, VDAC1, was still ubiquitylated (FIG. 8). Similar effects were seen when cells had been pre-incubated with 5 μM of compound before a low dose CCCP, which had no effect on its own.

TA 98 = assay: Ames Test, strain TA 98
Description: (§1) The test used amino acid-dependent strains of Salmonella typhimurium and Escherichia coli to detect point mutations which involved substitution, addition or deletion of one or a few DNA base pairs. Point mutations were introduced in the histidine (Salmonella typhimurium) or the tryptophan (Escherichia coli) operon, making the tester strains incapable of producing these amino acids. The test detected mutations that revert the mutations present in the bacteria, restoring the functional capability to synthesize histidine or tryptophan. The revertant bacteria were detected by the ability to grow in the absence of the amino acid required by the parent test strain. A mutagenic potential of a tested compound was assessed by exposing these bacterial strains to different concentrations of the compounds and estimating number of revertant colonies grown in the absence (trace quantities) of the amino acid.
(§2) DMSO was used as the negative control.
(§3) For each experiment, tester strain cultures were grown overnight in Oxoid nutrient broth #2 at 37° C. with shaking at 235 rpm to a density of 1-2×10^9 colony forming units/mL (OD540˜2).
(§4) The tester strain (10 μL of night culture) was mixed with the test agent (10 µL of the DMSO stock) and GM liquid medium (30 μL). The obtained mixture was incubated at room temperature for 5 min in a sterile 1.5 mL tube. Then, to the tube was added 200 μL of molten top agar stored at 44° C. to prevent solidifying. After mixing with a pipette, the mixture was poured onto the surface of a GM agar plate (2.0 mL of GM agar per plate). After solidifying the top agar, the plate was inverted and incubated at 37° C. for 48 hours. Then, results were expressed as number of revertant colonies per plate.

TA 100 = assay: Ames Test, strain TA 100
Description: as §1, §2, §3, §4

TA 1535 = system: TA 1535
Description: as §1, §2, §3, §4

TA 1537 = assay: Ames Test, strain TA 1537
Description: as §1, §2, §3, §4

CYP 2C9 = CYP 2C9 (Homo sapiens (Human), UniProt P11712); assay: P450-Glo CYP450 inhibition, CYP 2C9; assay type: in vitro ADME; settings: CYP 2C9, 10 μM; for inhibition at 10 µM: human, P450-Glo Assay System (Promega), CYP 2C9 membranes
Description: CYP450 inhibition profiling provides valuable information regarding any possible drug-drug interactions for a test compound.
All experiments were performed using P450-Glo™ Assay Systems (Promega) in accordance with the manufacturer's protocols. The P450-Glo™ Assays provide a luminescent readout-based method for measuring cytochrome P450 activity. A conventional cytochrome P450 reaction was performed by incubating the cytochrome P450 and a luminogenic cytochrome P450 substrate. The substrates in the P450-Glo™ assays are derivatives of beetle luciferin. The derivatives themselves are not substrates for luciferase but are converted by cytochrome P450s to luciferin, which in turn reacts with luciferase to produce light. The amount of light produced was directly proportional to cytochrome P450 activity. All test points were performed in quadruplicates. Control membranes (without CYPs) represented the Negative control (baseline).
The following reference compounds were used to assess CYP inhibition: […]

[1] = TA 98, 200 μM, baseline = mean of negative control + SD
[2] = TA 1537, 50 μM (row printed 100; conc. column shifted)
[3] = TA 1537, 100 μM (row printed 200; conc. column shifted)
[4] = TA 1537, 200 μM (row printed 300; conc. column shifted)

Chain of Parkin (O60260 whole entry): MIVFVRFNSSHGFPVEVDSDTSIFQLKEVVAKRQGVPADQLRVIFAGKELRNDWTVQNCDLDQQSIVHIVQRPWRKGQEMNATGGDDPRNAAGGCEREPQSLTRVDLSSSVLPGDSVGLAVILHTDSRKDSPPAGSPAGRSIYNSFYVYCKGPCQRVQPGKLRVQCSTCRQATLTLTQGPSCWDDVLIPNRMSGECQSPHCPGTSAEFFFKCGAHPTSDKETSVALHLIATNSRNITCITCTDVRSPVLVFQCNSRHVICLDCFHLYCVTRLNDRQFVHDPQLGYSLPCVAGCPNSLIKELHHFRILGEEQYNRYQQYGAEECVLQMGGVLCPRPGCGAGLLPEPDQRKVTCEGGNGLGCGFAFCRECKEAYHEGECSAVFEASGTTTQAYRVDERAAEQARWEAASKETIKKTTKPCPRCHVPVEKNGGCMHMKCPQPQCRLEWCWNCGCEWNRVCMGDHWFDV
Chain of CYP 2C9 (P11712 whole entry): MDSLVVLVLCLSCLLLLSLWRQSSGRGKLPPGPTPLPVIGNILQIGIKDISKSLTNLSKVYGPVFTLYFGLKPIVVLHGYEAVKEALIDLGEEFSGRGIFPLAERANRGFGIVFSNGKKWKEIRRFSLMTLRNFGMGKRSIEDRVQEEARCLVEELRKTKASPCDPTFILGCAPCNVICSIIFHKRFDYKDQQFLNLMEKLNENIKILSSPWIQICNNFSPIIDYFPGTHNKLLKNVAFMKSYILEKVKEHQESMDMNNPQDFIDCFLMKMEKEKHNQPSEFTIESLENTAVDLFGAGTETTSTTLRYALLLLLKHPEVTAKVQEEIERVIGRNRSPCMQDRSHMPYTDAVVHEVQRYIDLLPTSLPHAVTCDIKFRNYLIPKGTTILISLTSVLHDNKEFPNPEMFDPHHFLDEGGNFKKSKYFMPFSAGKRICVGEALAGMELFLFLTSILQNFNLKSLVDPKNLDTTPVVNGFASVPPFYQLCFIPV

| SMILES | Parkin substrate levels (ubiquitination and degradation) (Parkin) | pS65-Ub signal (western blot) (Parkin) | Fold increase (over baseline) (TA 98; TA 98, 50 μM) | Mean ± SD (TA 98; TA 98, 50 μM) | Fold increase (over baseline) (TA 98; TA 98, 100 μM) | Mean ± SD (TA 98; TA 98, 100 μM) | Mean ± SD (TA 98; TA 98, 200 μM) | Fold increase (over baseline) (TA 98; [1]) | Fold increase (over baseline) (TA 100; TA 100, 50 μM) | Mean ± SD (TA 100; TA 100, 50 μM) | Fold increase (over baseline) (TA 100; TA 100, 100 μM) | Mean ± SD (TA 100; TA 100, 100 μM) | Fold increase (over baseline) (TA 100; TA 100, 200 μM) | Mean ± SD (TA 100; TA 100, 200 μM) | Fold increase (over baseline) (TA 1535; TA 1535, 50 μM) | Mean ± SD (TA 1535; TA 1535, 50 μM) | Fold increase (over baseline) (TA 1535; TA 1535, 100 μM) | Mean ± SD (TA 1535; TA 1535, 100 μM) | Fold increase (over baseline) (TA 1535; TA 1535, 200 μM) | Mean ± SD (TA 1535; TA 1535, 200 μM) | further results |
| --- | --- | --- | --- | --- | --- | --- | --- | --- | --- | --- | --- | --- | --- | --- | --- | --- | --- | --- | --- | --- | --- |
| O=C(Cn1cnc2c1CCCC2)Nc1ccc(-c2ccccc2)cc1 [Compound 1] | reduced substrate levels | robust induction of pS65-Ub | 0.46 | 1.5 ± 0.7 revertant colonies per plate | 0.2 | 0.5 ± 0.7 revertant colonies per plate | 0 ± 0 revertant colonies per plate | 0 | 0 | 0 ± 0 revertant colonies per plate | 0 | 0 ± 0 revertant colonies per plate | 0 | 0 ± 0 revertant colonies per plate | 0.23 | 1 ± 0 revertant colonies per plate | 0 | 0 ± 0 revertant colonies per plate | 0 | 0 ± 0 revertant colonies per plate | Fold increase (over baseline) (TA 1537; [2]): 0.23; Mean ± SD (TA 1537; [2]): 0.5 ± 0.7 revertant colonies per plate; Fold increase (over baseline) (TA 1537; [3]): 0.45; Mean ± SD (TA 1537; [3]): 1 ± 1.41 revertant colonies per plate; Fold increase (over baseline) (TA 1537; [4]): 0.45; Inhibition, % (individual replicates) (CYP 2C9): 40.6% and 11.1% and 15.7% and 28.5%; inhibition at 10 µM (CYP 2C9; read-out: Inhibition, % Mean): 24% |
| O=C(Cn1ccnc1-c1ccccn1)Nc1ccc(-c2ccccc2)cc1 [Compound 4] | reduced substrate levels | robust induction of pS65-Ub | 0.46 | 1.5 ± 0.7 revertant colonies per plate | 0 | 0 ± 0 revertant colonies per plate | 0 ± 0 revertant colonies per plate | 0 | 0.89 | 5.5 ± 2.12 revertant colonies per plate | 1.2 | 7.5 ± 3.54 revertant colonies per plate | 0.65 | 4 ± 1.41 revertant colonies per plate | 0.23 | 1 ± 0 revertant colonies per plate | 0.34 | 1.5 ± 0.7 revertant colonies per plate | 0 | 0 ± 0 revertant colonies per plate | Fold increase (over baseline) (TA 1537; [2]): 0.23; Mean ± SD (TA 1537; [2]): 0.5 ± 0.7 revertant colonies per plate; Fold increase (over baseline) (TA 1537; [3]): 0; Mean ± SD (TA 1537; [3]): 0 ± 0 revertant colonies per plate; Fold increase (over baseline) (TA 1537; [4]): 0.23; Inhibition, % (individual replicates) (CYP 2C9): 27.3% and 11.9% and 4.6% and −11.1%; inhibition at 10 µM (CYP 2C9; read-out: Inhibition, % Mean): 8.2% |
| CC(C)(C)Sc1ccc(NC(=O)Cn2ccnc2)cc1 [Compound 3] | reduced substrate levels | robust induction of pS65-Ub | 0.46 | 1.5 ± 0.7 revertant colonies per plate | 0.2 | 0.5 ± 0.7 revertant colonies per plate | >1000 revertant colonies per plate | >312 | 0.85 | 5.5 ± 0.7 revertant colonies per plate | >32 | >200 revertant colonies per plate | >48 | >300 revertant colonies per plate | 0.34 | 1.5 ± 0.7 revertant colonies per plate | 0 | 0 ± 0 revertant colonies per plate | >34 | >150 revertant colonies per plate | mutagenic activity (TA 98; TA 98, 200 μM): mutagenic activity; mutagenic activity (TA 100; TA 100, both 100 and 200 μM): mutagenic activity; mutagenic activity (TA 1535; TA 1535, 200 μM): mutagenic activity; Fold increase (over baseline) (TA 1537; [2]): 0.45; Mean ± SD (TA 1537; [2]): 1 ± 1.41 revertant colonies per plate; Fold increase (over baseline) (TA 1537; [3]): 0.23; Mean ± SD (TA 1537; [3]): 0.5 ± 0.7 revertant colonies per plate; Fold increase (over baseline) (TA 1537; [4]): 5.68; Inhibition, % (individual replicates) (CYP 2C9): 98.8% and 98.0% and 97.4%; inhibition at 10 µM (CYP 2C9; read-out: Inhibition, % (individual replicates)): 96.2%; inhibition at 10 µM (CYP 2C9; read-out: Inhibition, % Mean): 97.6% |

From US11401255B2, “Small molecule activators of Parkin enzyme function” (Mayo Foundation for Medical Education and Research, priority 2016, dated 2022)
